Legend:
[1] = target: T1, Phospho-EGFR (Tyr1068) in A431 cells (Homo sapiens, UniProt P00533); test: HTRF pEGFR/total EGFR in A431 cells with EGF stimulation; assay type: cell-based; details: ratio pEGFR/total EGFR, compound 2.5 hours then 100 ng/ml EGF 30 mins
T1 construct: endogenous in cells; host or cells: A431
Outline: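 A431 cells were plated at 20,000 per well, allowed 24 h to adhere, then given compound for 2.5 h (0.1% DMSO final). They were then stimulated with 100 ng/ml EGF for 30 min and lysed. HTRF measured Tyr1068-phospho and total EGFR at 665/620 nm, with pEGFR/total EGFR expressed as % of the 0 μM control.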

[2] = target: T2, Phospho-EGFR (Tyr1068) in H1975 cells (Homo sapiens, UniProt P00533, L858R/T790M); test: HTRF pEGFR/total EGFR in H1975 cells; assay type: cell-based; details: ratio pEGFR/total EGFR, compound 3 hours
T2 construct: host or cells: H1975
Outline: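 H1975 cells (EGFR L858R/T790M) treated 3 h with compound in 0.1% DMSO, in duplicate, 24 h after plating. Lysates assayed by HTRF for pEGFR (Tyr1068) and total EGFR at 665/620 nm; values are pEGFR/total EGFR ratio as percent of 0 μM control.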

[3] = target: T3, Phospho-EGFR (Tyr1068) in H1975 C797S cells (CRISPR-edited EGFR C797S) (Homo sapiens, UniProt P00533, C797S/L858R/T790M); test: HTRF pEGFR/total EGFR in H1975 C797S cells; assay type: cell-based; details: ratio pEGFR/total EGFR, compound 3 hours
T3 construct: host or cells: H1975 C797S (CRISPR-edited)
Outline: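 Adhered H1975 C797S cells got compound for 3 h in duplicate at 0.1% DMSO final, then were lysed 30 min at room temperature. HTRF kits quantified phospho-EGFR (Tyr1068) and total EGFR (665/620 nm); results are pEGFR/total EGFR ratio as percent of 0 μM control.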

[4] = target: CtermHisTag-mEGFR Wild type (Homo sapiens, UniProt P00533); test: biochemical
CtermHisTag-mEGFR Wild type, sequence (P00533 whole entry): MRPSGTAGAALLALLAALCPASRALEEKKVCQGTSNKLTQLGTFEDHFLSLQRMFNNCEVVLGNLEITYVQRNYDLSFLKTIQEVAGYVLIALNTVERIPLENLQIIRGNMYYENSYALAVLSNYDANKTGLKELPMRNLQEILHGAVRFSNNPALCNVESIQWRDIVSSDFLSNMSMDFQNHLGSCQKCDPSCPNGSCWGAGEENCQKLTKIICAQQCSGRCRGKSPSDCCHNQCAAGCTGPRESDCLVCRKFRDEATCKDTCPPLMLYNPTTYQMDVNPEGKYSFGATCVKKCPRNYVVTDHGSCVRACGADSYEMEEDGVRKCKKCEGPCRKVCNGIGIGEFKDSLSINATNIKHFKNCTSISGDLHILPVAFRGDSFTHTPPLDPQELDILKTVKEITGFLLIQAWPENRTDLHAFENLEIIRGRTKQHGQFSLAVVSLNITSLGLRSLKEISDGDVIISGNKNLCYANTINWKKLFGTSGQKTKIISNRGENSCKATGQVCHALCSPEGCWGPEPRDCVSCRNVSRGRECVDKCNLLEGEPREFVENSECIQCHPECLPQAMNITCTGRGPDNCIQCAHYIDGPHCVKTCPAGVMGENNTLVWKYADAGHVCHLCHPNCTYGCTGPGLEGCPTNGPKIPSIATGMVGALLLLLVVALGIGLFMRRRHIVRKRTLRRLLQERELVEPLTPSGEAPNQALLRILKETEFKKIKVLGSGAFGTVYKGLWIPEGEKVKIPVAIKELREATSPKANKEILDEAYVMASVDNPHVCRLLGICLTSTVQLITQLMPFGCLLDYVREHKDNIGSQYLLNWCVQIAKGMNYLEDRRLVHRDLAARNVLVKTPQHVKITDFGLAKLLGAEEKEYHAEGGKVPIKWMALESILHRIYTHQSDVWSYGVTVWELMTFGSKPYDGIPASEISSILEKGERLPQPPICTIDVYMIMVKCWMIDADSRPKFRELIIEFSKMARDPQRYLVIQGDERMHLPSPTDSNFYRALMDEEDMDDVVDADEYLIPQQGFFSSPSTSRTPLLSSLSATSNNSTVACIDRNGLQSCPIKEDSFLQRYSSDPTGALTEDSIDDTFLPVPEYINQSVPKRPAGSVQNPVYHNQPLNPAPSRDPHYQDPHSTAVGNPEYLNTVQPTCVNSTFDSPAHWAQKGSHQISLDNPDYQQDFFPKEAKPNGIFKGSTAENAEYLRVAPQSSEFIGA

T2 sequence (P00533 25-1210 T790M/L858R): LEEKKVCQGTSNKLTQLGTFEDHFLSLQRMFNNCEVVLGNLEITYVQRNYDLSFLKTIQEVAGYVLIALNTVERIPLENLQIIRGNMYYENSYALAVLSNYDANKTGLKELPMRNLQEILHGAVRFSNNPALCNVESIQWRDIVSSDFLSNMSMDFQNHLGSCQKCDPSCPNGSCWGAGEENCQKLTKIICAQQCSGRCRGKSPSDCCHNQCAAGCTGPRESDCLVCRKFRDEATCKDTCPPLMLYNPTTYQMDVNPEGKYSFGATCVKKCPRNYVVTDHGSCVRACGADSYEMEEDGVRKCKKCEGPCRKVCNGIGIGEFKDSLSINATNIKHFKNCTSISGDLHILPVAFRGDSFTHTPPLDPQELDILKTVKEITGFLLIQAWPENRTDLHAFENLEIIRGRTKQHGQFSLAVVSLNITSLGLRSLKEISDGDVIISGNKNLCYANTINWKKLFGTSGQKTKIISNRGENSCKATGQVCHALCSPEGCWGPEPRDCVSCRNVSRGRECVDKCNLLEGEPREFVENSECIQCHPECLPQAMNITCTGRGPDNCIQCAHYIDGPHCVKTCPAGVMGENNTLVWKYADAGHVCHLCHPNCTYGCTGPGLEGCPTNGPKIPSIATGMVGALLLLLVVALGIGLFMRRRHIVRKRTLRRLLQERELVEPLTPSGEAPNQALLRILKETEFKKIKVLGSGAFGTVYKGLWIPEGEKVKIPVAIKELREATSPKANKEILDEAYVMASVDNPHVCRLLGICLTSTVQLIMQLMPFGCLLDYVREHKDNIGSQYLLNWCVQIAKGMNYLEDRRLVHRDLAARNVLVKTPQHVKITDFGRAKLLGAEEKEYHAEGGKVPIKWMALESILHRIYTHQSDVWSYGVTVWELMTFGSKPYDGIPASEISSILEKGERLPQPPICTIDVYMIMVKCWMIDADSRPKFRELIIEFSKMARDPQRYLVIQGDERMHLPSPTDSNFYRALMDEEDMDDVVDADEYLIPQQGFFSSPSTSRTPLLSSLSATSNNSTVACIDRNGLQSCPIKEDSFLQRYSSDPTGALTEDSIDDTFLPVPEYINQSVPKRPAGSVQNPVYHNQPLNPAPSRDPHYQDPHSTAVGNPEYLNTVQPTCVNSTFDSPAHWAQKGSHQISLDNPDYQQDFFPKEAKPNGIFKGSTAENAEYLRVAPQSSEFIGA
T1 sequence (P00533 25-1210): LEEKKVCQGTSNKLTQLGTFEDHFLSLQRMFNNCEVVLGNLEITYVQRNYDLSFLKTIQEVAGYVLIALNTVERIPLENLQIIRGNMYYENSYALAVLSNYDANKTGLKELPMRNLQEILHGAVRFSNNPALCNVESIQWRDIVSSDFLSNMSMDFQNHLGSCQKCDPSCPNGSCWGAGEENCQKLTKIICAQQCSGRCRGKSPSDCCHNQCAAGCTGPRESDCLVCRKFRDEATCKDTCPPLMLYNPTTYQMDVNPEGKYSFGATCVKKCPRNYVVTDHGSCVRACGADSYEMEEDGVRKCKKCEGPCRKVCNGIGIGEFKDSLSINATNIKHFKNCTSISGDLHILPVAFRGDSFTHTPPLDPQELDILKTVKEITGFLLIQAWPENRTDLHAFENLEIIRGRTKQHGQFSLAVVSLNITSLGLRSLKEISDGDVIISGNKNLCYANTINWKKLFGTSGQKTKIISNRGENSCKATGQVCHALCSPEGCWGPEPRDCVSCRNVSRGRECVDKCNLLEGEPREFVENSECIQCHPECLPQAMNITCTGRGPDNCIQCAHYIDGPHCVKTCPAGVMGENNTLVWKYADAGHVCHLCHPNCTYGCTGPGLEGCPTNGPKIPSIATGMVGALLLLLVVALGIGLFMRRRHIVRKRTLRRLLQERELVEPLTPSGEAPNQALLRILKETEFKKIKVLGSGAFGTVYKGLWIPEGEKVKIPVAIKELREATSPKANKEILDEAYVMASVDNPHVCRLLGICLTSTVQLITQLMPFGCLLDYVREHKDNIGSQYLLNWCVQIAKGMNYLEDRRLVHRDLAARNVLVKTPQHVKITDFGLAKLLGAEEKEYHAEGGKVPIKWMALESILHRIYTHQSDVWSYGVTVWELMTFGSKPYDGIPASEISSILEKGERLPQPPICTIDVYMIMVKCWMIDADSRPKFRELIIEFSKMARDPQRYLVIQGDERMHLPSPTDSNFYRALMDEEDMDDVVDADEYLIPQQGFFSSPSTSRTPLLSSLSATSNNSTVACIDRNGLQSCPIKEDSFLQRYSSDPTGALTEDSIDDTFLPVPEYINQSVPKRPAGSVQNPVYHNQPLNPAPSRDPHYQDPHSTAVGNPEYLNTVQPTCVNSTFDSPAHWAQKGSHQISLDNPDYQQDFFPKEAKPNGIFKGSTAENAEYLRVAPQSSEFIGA
T3 sequence (P00533 25-1210 T790M/C797S/L858R): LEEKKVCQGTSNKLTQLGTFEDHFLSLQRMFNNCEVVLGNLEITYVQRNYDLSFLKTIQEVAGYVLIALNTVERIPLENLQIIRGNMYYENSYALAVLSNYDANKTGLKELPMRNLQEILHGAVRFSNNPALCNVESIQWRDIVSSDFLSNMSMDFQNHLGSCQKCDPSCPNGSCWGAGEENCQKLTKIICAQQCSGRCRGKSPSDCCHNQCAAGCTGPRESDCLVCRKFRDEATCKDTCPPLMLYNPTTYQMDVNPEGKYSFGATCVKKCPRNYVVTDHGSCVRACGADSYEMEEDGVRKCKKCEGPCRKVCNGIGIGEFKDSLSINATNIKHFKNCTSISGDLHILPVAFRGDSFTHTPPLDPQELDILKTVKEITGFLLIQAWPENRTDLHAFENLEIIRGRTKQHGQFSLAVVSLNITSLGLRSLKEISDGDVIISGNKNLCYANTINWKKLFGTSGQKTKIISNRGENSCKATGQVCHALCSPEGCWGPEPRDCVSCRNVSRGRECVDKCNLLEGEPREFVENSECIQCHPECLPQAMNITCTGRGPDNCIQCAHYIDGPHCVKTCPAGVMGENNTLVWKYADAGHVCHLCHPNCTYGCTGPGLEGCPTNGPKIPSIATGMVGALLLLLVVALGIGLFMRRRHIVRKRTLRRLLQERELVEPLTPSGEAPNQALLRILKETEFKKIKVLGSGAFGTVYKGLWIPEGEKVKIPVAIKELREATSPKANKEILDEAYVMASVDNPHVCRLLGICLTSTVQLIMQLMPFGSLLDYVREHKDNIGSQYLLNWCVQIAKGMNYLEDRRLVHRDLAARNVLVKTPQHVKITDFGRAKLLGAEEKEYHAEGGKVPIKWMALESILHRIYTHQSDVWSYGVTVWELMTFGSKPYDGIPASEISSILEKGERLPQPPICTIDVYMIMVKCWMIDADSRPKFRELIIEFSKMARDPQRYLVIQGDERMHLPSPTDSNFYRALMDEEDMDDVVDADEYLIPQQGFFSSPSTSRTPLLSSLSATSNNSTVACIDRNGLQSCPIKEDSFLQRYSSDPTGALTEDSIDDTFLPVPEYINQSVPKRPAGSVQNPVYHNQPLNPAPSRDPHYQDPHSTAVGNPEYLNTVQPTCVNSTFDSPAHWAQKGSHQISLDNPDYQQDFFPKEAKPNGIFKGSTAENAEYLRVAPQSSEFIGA

| IC50 [1] [µM] | IC50 [2] [µM] | IC50 [3] [µM] | IC50 [4] [µM] | SMILES |
| --- | --- | --- | --- | --- |
| > 3 | 0.5 to 1 | 1 to 3 | < 1 | C#Cc1cc(=O)n([C@H]2CC[C@@H](NC(=O)Cc3cn[nH]c3)CC2)c2nc(Nc3ccc(N4CCN(C)CC4)cc3)ncc12 [Example 91, 2-(1H-Pyrazol-4-yl)-N-[(1s,4s)-4-(5-ethynyl-2-{[4-(4-methylpiperazin-1-yl)phenyl]amino}-7-oxopyrido[2,3-d]pyrimidin-8-yl)cyclohexyl]acetamide] |
| > 3 | > 3 | > 3 | 1 to 10 | C#Cc1cc(=O)n([C@H]2CC[C@@H](NC(=O)CCC(=O)OC)CC2)c2nc(Nc3ccc(N4CCN(C)CC4)cc3)ncc12 [Example 92, Methyl 4-(((1s,4s)-4-(5-ethynyl-2-((4-(4-methylpiperazin-1-yl)phenyl)amino)-7-oxopyrido[2,3-d]pyrimidin-8(7H)-yl)cyclohexyl)amino)-4-oxobutanoate] |
| > 3 | 0.5 to 1 | 1 to 3 | 1 to 10 | C#Cc1cc(=O)n([C@H]2CC[C@@H](NC(=O)CCC(=O)N(C)C)CC2)c2nc(Nc3ccc(N4CCN(C)CC4)cc3)ncc12 [Example 93, N,N-Dimethyl-N′-[(1s,4s)-4-(5-ethynyl-2-{[4-(4-methylpiperazin-1-yl)phenyl]amino}-7-oxopyrido[2,3-d]pyrimidin-8-yl)cyclohexyl]succinamide] |
| > 3 | 0.5 to 1 | 0.5 to 1 | 1 to 10 | C#Cc1cc(=O)n([C@H]2CC[C@@H](NC(=O)CC(=O)NC)CC2)c2nc(Nc3ccc(N4CCN(C)CC4)cc3)ncc12 [Example 94, N-Methyl-N′-[(1s,4s)-4-(5-ethynyl-2-{[4-(4-methylpiperazin-1-yl)phenyl]amino}-7-oxopyrido[2,3-d]pyrimidin-8-yl)cyclohexyl]propanediamide] |
| > 3 | < 0.5 | < 0.5 | 1 to 10 | C#Cc1cc(=O)n([C@H]2CC[C@@H](NC(=O)CC(=O)N(C)C)CC2)c2nc(Nc3ccc(N4CCN(C)CC4)cc3)ncc12 [Example 95, N,N-Dimethyl-N′-[(1s,4s)-4-(5-ethynyl-2-{[4-(4-methylpiperazin-1-yl)phenyl]amino}-7-oxopyrido[2,3-d]pyrimidin-8-yl)cyclohexyl]propanediamide] |
| > 3 | 1 to 3 | > 3 | < 1 | C#Cc1cc(=O)n([C@H]2CC[C@@H](NC(=O)CCN(C)C)CC2)c2nc(Nc3ccc(N4CCN(C)CC4)cc3)ncc12 [Example 96, 3-(Dimethylamino)-N-[(1s,4s)-4-(5-ethynyl-2-{[4-(4-methylpiperazin-1-yl)phenyl]amino}-7-oxopyrido[2,3-d]pyrimidin-8-yl)cyclohexyl]propanamide] |
| > 3 | 1 to 3 | 1 to 3 | > 10 | C#Cc1cc(=O)n([C@H]2CC[C@@H](NC(=O)CCCN(C)C)CC2)c2nc(Nc3ccc(N4CCN(C)CC4)cc3)ncc12 [Example 97, 4-(Dimethylamino)-N-[(1s,4s)-4-(5-ethynyl-2-{[4-(4-methylpiperazin-1-yl)phenyl]amino}-7-oxopyrido[2,3-d]pyrimidin-8-yl)cyclohexyl]butanamide] |
| > 3 | > 3 | > 3 | 1 to 10 | C#Cc1cc(=O)n([C@H]2CC[C@@H](NC(=O)CCC(=O)NC)CC2)c2nc(Nc3ccc(N4CCN(C)CC4)cc3)ncc12 [Example 98, N-Methyl-N′-[(1s,4s)-4-(5-ethynyl-2-{[4-(4-methylpiperazin-1-yl)phenyl]amino}-7-oxopyrido[2,3-d]pyrimidin-8-yl)cyclohexyl]succinamide] |
| > 3 | 1 to 3 | > 3 | < 1 | C#Cc1cc(=O)n([C@H]2CC[C@@H](NC(=O)CC(=O)O)CC2)c2nc(Nc3ccc(N4CCN(C)CC4)cc3)ncc12 [Example 99, 2-{[(1s,4s)-4-(5-Ethynyl-2-{[4-(4-methylpiperazin-1-yl)phenyl]amino}-7-oxopyrido[2,3-d]pyrimidin-8-yl)cyclohexyl]carbamoyl}acetic acid] |
| 1 to 3 | < 0.5 | < 0.5 | 1 to 10 | C#Cc1cc(=O)n([C@H]2CC[C@@H](NC(=O)CN(C)C)CC2)c2nc(Nc3ccc(N4CCN(C)CC4)cc3)ncc12 [Example 100, 2-(Dimethylamino)-N-[(1s,4s)-4-(5-ethynyl-2-{[4-(4-methylpiperazin-1-yl)phenyl]amino}-7-oxopyrido[2,3-d]pyrimidin-8-yl)cyclohexyl]acetamide] |
| > 3 | > 3 | > 3 | > 10 | C#Cc1cc(=O)n([C@H]2CC[C@@H](N(C)C(=O)CN(C)C)CC2)c2nc(Nc3ccccc3OC)ncc12 [Example 101, 2-(Dimethylamino)-N-methyl-N-[(1s,4s)-4-{5-ethynyl-2-[(2-methoxyphenyl)amino]-7-oxopyrido[2,3-d]pyrimidin-8-yl}cyclohexyl]acetamide] |
| 1 to 3 | 1 to 3 | 1 to 3 | 1 to 10 | C#Cc1c(C)c(=O)n([C@H]2CC[C@H](NC(C)=O)CC2)c2nc(Nc3ccc(N4CCN(C)CC4)cc3)ncc12 [Example 102, N-[(1r,4r)-4-(5-Ethynyl-6-methyl-2-{[4-(4-methylpiperazin-1-yl)phenyl]amino}-7-oxopyrido[2,3-d]pyrimidin-8-yl)cyclohexyl]acetamide] |
| 1 to 3 | 1 to 3 | 1 to 3 | 1 to 10 | C#Cc1c(C)c(=O)n([C@H]2CC[C@@H](NC(C)=O)CC2)c2nc(Nc3ccc(N4CCN(C)CC4)cc3)ncc12 [Example 103, N-[(1s,4s)-4-(5-ethynyl-6-methyl-2-{[4-(4-methylpiperazin-1-yl)phenyl]amino}-7-oxopyrido[2,3-d]pyrimidin-8-yl)cyclohexyl]acetamide] |
| > 3 | < 0.5 | 0.5 to 1 | > 10 | C#Cc1cc(=O)n(C2CCNC2=O)c2nc(Nc3ccc(N4CCN(C)CC4)cc3)ncc12 (stereo not drawn) [Example 104, 3-(5-ethynyl-2-{[4-(4-methylpiperazin-1-yl)phenyl]amino}-7-oxopyrido[2,3-d]pyrimidin-8-yl)pyrrolidin-2-one] |
| > 3 | 1 to 3 | 1 to 3 | > 10 | C#Cc1cc(=O)n(C2CCOC2)c2nc(Nc3ccc(N4CCN(C)CC4)cc3)ncc12 (stereo not drawn) [Example 105, 5-ethynyl-2-{[4-(4-methylpiperazin-1-yl)phenyl]amino}-8-(oxolan-3-yl)pyrido[2,3-d]pyrimidin-7-one] |
| > 3 | 1 to 3 | 1 to 3 | > 10 | C#Cc1cc(=O)n(C2CCNC2)c2nc(Nc3ccc(N4CCN(C)CC4)cc3)ncc12 (stereo not drawn) [Example 106, 5-ethynyl-2-{[4-(4-methylpiperazin-1-yl)phenyl]amino}-8-(pyrrolidin-3-yl)pyrido[2,3-]pyrimidin-7-one] |
| > 3 | > 3 | 1 to 3 | > 10 | C#Cc1cc(=O)n(C2CCN(C)C2)c2nc(Nc3ccc(N4CCN(C)CC4)cc3)ncc12 (stereo not drawn) [Example 107, 5-ethynyl-2-{[4-(4-methylpiperazin-1-yl)phenyl]amino}-8-(1-methylpyrrolidin-3-yl)pyrido[2,3-d]pyrimidin-7-one] |
| > 3 | > 3 | > 3 | > 10 | C#Cc1cc(=O)n(C2CNC(=O)C2)c2nc(Nc3ccc(N4CCN(C)CC4)cc3)ncc12 (stereo not drawn) [Example 108, 4-(5-ethynyl-2-{[4-(4-methylpiperazin-1-yl)phenyl]amino}-7-oxopyrido[2,3-d]pyrimidin-8-yl)pyrrolidin-2-one] |
| 1 to 3 | 1 to 3 | 1 to 3 | 1 to 10 | C#Cc1c(C)c(=O)n(Cc2ccn[nH]2)c2nc(Nc3ccc(N4CCN(C)CC4)cc3)ncc12 [Example 109, 5-ethynyl-6-methyl-2-{[4-(4-methylpiperazin-1-yl)phenyl]amino}-8-(2H-pyrazol-3-ylmethyl)pyrido[2,3-d]pyrimidin-7-one] |
| 1 to 3 | 0.5 to 1 | 1 to 3 | < 1 | C#Cc1c(C)c(=O)n(Cc2ccn(C)n2)c2nc(Nc3ccc(N4CCN(C)CC4)cc3)ncc12 [Example 110, 5-ethynyl-6-methyl-2-{[4-(4-methylpiperazin-1-yl)phenyl]amino}-8-[(1-methylpyrazol-3-yl)methyl]pyrido[2,3-d]pyrimidin-7-one] |
| > 3 | 1 to 3 | 1 to 3 | 1 to 10 | C#Cc1c(C)c(=O)n(Cc2cnc[nH]2)c2nc(Nc3ccc(N4CCN(C)CC4)cc3)ncc12 [Example 111, 5-ethynyl-8-(3H-imidazol-4-ylmethyl)-6-methyl-2-{[4-(4-methylpiperazin-1-yl)phenyl]amino}pyrido[2,3-d]pyrimidin-7-one] |
